In PubChem BioAssay (NCI) one finds GI50 and TGI data, which are given here for 18 compounds.

Common to all, as to test: inhibition of tumour cell growth, NCI panel, 48 h
Test [1] concerns SK-MEL-28 melanoma.
For test [2], the system named is ACHN renal.
Test [3] has as its system OVCAR-8 ovarian.
Test [4] has as its system NCI-H460 lung.
The subject of test [5] is SF-268 CNS.
Test [6] relates to SK-MEL-2 melanoma.
For test [7], the system named is SW-620 colon.
Test [8] has as its system NCI-H522 lung.
Test [9] relates to MCF7 breast.
In test [10] the test system is SNB-19 CNS.

Each structure is given as a SMILES string. Several values for one entry are separate records, joined by “and”; a condition that tells them apart may be missing. Equal entries are not always repeated.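 Protocol summary: plate cells (96-well), add compound at 5 concentrations, incubate 48 h, interpolate endpoints linearly. GI50 is the concentration that inhibits growth by half. At the TGI there is no net growth.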

As for `C[C@@H](CO)[C@@H]1CCC=C2CC[C@]3(C)[C@H](CC[C@@H]4[C@@]5(C)CCCNC(C)(C)[C@@H]5CC[C@]43C)[C@H]21`, the GI50 in test [1] was 1.72 µM; in [2], 2.45 µM; in [3], 2.02 µM; in [4] it was 1.81 µM; in [5], 4.48 µM; in test [6], 2.08 µM. Besides, the GI50 in test [7] is 1.86 µM; in test [8], 1.85 µM; in test [9], 1.49 µM; in [10] it was 2.03 µM. Also, the TGI in [1] worked out at 3.45 µM; in test [2], 6.52 µM; in [3] it was 4.1 µM; in [4] it was 3.39 µM; in [5], 19.5 µM; in test [6], 4.29 µM. For the same compound, the TGI in [7] was determined as 3.62 µM; in [8] it was 3.86 µM; in test [9], 3.02 µM; in [10] it was 4.15 µM.
As for `CCCCCCCCCCCC1CCCC(C)N1` (stereo not drawn), the GI50 in [1] was 13.6 µM; in test [2], 11.4 µM; in test [3] it was 13.8 µM; in [4], 3.67 µM; in [5], 11 µM; in test [6], 5.88 µM. Further, the GI50 is 2.71 µM in test [7], 7.29 µM in [8], 3.24 µM in test [9] and 11.4 µM in test [10]. Also, the TGI was 28.2 µM and 152 µM in test [1]; 25.5 µM in [2]; 40.1 µM and 167 µM in [3]; 12.5 µM and 118 µM in test [4]; 27.2 µM and 147 µM in [5]; 19.9 µM and 96.4 µM in [8]. Moreover, the TGI in test [10] was 25.3 µM and 155 µM.
`COc1ccc2c(c1)C(=O)c1c-2c(Nc2ccc(Cl)cc2)nc2ccccc12`: the GI50 in test [1] was 19.7 µM; in test [2], 4.23 µM; in [3], 11.4 µM; in test [4], more than 100 µM; in test [5] it was more than 100 µM; in test [6], 17 µM. Moreover, the GI50 in test [7] is 23.8 µM; in [8] it was 10.1 µM; in test [9], more than 100 µM; in test [10], 14.4 µM. Further, the TGI in test [1] was more than 100 µM; in test [2], 16.3 µM; in test [3], 29.6 µM; in [4], more than 100 µM; in test [5] it was more than 100 µM; in test [6] it was 56.1 µM. Further, the TGI in [7] was more than 100 µM; in test [8], 45.5 µM; in test [9], more than 100 µM; in [10], 44 µM.
As to `N#Cc1c(N)nc(N2CCOCC2)c(C#N)c1-c1cccnc1`, the GI50 in test [1] was more than 100 µM; in test [2] it was 48.7 µM; in test [3] it was more than 100 µM; in test [4], more than 100 µM; in test [5], more than 100 µM; in [6], more than 100 µM. The GI50 was more than 100 µM in test [7], 22.3 µM in test [8], 55.8 µM in test [9] and 77.2 µM in [10]. Further, the TGI in test [1], in test [2], in test [3], in [4], in [5] and in [6] was more than 100 µM each time. The TGI was more than 100 µM in test [7], 81.7 µM in [8], more than 100 µM in test [9] and more than 100 µM in test [10].
`Nc1nc(-c2ccccc2)nc2c1[n+]([O-])c1ccccc1[n+]2[O-]`: the TGI in [1], in [2], in test [3], in test [4], in test [5] and in test [6] was more than 100 µM throughout. Moreover, the TGI in [7], in test [8], in test [9] and in test [10] was more than 100 µM each time.
In the case of `CCNC(=O)c1cc2c(-c3cc(C(C)(C)O)ccc3Oc3c(C)cc(F)cc3C)cn(C)c(=O)c2[nH]1`, the GI50 in [1] is 4.37 µM; in test [2] it was 2.15 µM; in test [3], 2.54 µM; in test [4] it was 3.3 µM; in [5], 3.58 µM; in test [6], 2.92 µM. The GI50 in test [7] was 3.56 µM; in [8] it was 1.76 µM; in test [9] it was 0.521 µM; in test [10], 2.05 µM. Moreover, the TGI in test [1] came to 17.9 µM; in [2] it was 12.1 µM; in test [3] it was 20.4 µM; in test [4], 17.6 µM; in [5] it was 18.6 µM; in [6], 15 µM. Moreover, the TGI in test [7] was determined as 21 µM; in [8] it was 14.2 µM; in [9], 12.9 µM; in test [10], 14.2 µM.
As to `c1cc(CNCCN2CCNCC2)ccn1`, the TGI in [1], in test [2], in [3], in test [4], in test [5] and in test [6] was more than 100 µM throughout. Further, the TGI in [7], in test [8], in test [9] and in test [10] was more than 100 µM throughout.
In the case of `O=C(NCc1ccc(Cn2c(=O)sn(-c3ccccc3)c2=O)cc1)OCc1ccc2c(Br)cc(Br)c(O)c2n1`, the GI50 in test [1] is 1.17 µM; in [2], 0.281 µM; in test [3], 0.762 µM; in [4], 1.48 µM; in test [5], 1.46 µM; in test [6], 1.34 µM. For the same compound, the GI50 in [7] was 0.246 µM; in [8], 0.309 µM; in test [9], 0.399 µM; in test [10], 1.55 µM. The TGI in test [1] was 2.4 µM; in [2] it was 0.927 µM; in [3], 2.44 µM; in test [4] it was 3.37 µM; in test [5], 2.88 µM; in test [6], 2.82 µM. In addition, the TGI in test [7] came out at 0.649 µM; in test [8] it was 1.08 µM; in test [9], 1.96 µM; in test [10] it was 2.9 µM.
As to `COc1cc(/C=C/C(=O)c2ccc(NC(=O)CN3CCN(c4cc5c(cc4F)c(=O)c(C(=O)O)cn5C4CC4)CC3)cc2)cc(OC)c1OC`, the GI50 in test [1] was 1.42 µM; in test [2], 0.692 µM; in test [3], 0.401 µM; in [4], 0.497 µM; in test [5] it was 1.09 µM; in test [6] it was 2.21 µM. Moreover, the GI50 was 0.485 µM in test [7], 0.976 µM in test [8], 0.381 µM in [9] and 2.71 µM in test [10]. Moreover, the TGI was 12.7 µM in [1]; more than 26.6 µM in test [2]; 26.9 µM in [3]; 20.4 µM in test [5]; 5.78 µM in test [6]; 3.77 µM in test [8]. Also, the TGI in [9] is more than 100 µM; in test [10], more than 59.5 µM.
For the compound `CC1OC(OC2C(O[C@H]3CC[C@@]4(C)C(=CC[C@H]5[C@@H]6C[C@@H]7O[C@]8(CC[C@H](C)CN8)[C@@H](C)[C@@H]7[C@@]6(C)CC[C@@H]54)C3)OC(CO)C(O)C2OC2OC(CO)C(O)C(O)C2O)C(O)C(O)C1O` (stereo partly drawn), the TGI is 38.5 µM in [1]; 31.4 µM in test [2]; 31.1 µM in test [3]; 31.6 µM in [4]; 33.3 µM in test [5]; 32.4 µM in test [6]. In addition, the TGI in test [7] worked out at 39 µM; in [8], 30.3 µM; in test [9] it was 32.9 µM; in test [10], 35.6 µM.
Turning to `O=[N+]([O-])c1c(Br)sc(Br)c1[N+](=O)[O-]`, the GI50 was 2.01 µM in [1]; 1.64 µM in test [2]; 2.39 µM in test [3]; 6.67 µM in [4]; 12.5 µM in test [5]; 2.79 µM in [6]. In addition, the GI50 in test [7] is 1.6 µM; in test [8], 0.613 µM; in test [9], 2.2 µM; in test [10] it was 13.4 µM. Further, the TGI is 4.54 µM in test [1]; 3.19 µM in [2]; 7.08 µM in test [3]; 28.1 µM in test [4]; 25 µM in [5]; 10.3 µM in test [6]. Besides, the TGI is 3.27 µM in test [7], 1.95 µM in [8], 7.65 µM in test [9] and 27.9 µM in test [10].
Turning to `COc1ccc(Cn2cc3c(c2-c2ccc(OC)cc2)CCc2cnoc2-3)cc1`, the GI50 in test [1] was 0.804 µM; in [2], 0.892 µM; in test [3], 0.621 µM; in test [4], 0.347 µM; in test [5], 0.686 µM; in test [7], 0.353 µM. The GI50 in test [8] was 0.199 µM; in test [9], 0.389 µM; in test [10] it was 0.679 µM. Further, the TGI is more than 100 µM in test [1]; more than 100 µM in [2]; more than 100 µM in test [3]; 1.96 µM in test [4]; more than 100 µM in test [5]; more than 100 µM in [7]. Also, the TGI in [8] was 0.572 µM; in test [9] it was more than 100 µM; in test [10], more than 100 µM.
Turning to `CN(C)c1ccc(Nc2cc(-c3cccc(OC(F)(F)F)c3)nc3ccc(N4CCCC4)cc23)cc1`, the GI50 is 1.79 µM in [1]; 2.05 µM in [2]; 1.92 µM in [4]; 1.85 µM in test [5]; 12.4 µM in [6]; 2.03 µM in [8]. The values for the GI50 in test [9] and in test [10] were 1.86 µM and 3.32 µM, respectively. The TGI turned out to be 3.3 µM in test [1]; 4.36 µM in [2]; 3.66 µM in [4]; 3.54 µM in [5]; 26.5 µM in test [6]; 4.73 µM in test [8]. Moreover, the TGI in test [9] turned out to be 4.61 µM; in [10] it was 13.7 µM.
Regarding `Cn1ccnc1C(=O)/C=C/c1ccccc1`, the GI50 in [1] was 2.61 µM; in [2] it was 4.53 µM; in test [3], 2.59 µM; in test [4] it was 3.2 µM; in [6], 3.63 µM; in [7], 3.58 µM. For the same compound, the GI50 was 3.38 µM in test [8] and 1.27 µM in [9]. Besides, the TGI worked out at 5.97 µM in [1]; 20.3 µM in [2]; 6.94 µM in test [3]; 11.4 µM in [4]; 17.1 µM in test [6]; 12.4 µM in test [7]. Further, the TGI was found to be 14.9 µM in test [8] and 6.77 µM in [9].
For the compound `Cc1cccc2c(=O)c3c(sc12)c(NCCNCCO)nc1ccccc13`, the GI50 in [1] is 1.79 µM; in [2] it was 1.5 µM; in test [4], 1.19 µM; in test [5], 1.54 µM; in [6], 1.78 µM; in [7], 1.45 µM. Further, the GI50 in test [8] was 1.63 µM; in test [9], 1.24 µM. Further, the TGI in [1] worked out at 3.31 µM; in test [2], 2.83 µM; in [4] it was 2.64 µM; in test [5], 3.15 µM; in test [6], 3.44 µM; in test [7], 3.01 µM. Moreover, the TGI in test [8] was 3.54 µM; in test [9], 2.72 µM.
`c1csc(-c2cc(-c3cccs3)c(-c3cccs3)s2)c1`: the TGI in test [1], in [2], in [3], in test [4], in [5] and in [7] was more than 100 µM in each case. In addition, the TGI in [8] was more than 100 µM; in test [9] it was 66.8 µM; in test [10], more than 100 µM.
Consider `O=C(Cc1nc2ccccc2s1)Nc1cccc(C(F)(F)F)c1`, for which the TGI in [1] was determined as 28.8 µM; in [2], 28.2 µM; in test [3], 38.1 µM; in test [4], 41.4 µM; in [5], 29.7 µM; in test [6], 33.8 µM. For the same compound, the TGI turned out to be 43.2 µM in [7], 28.4 µM in test [8] and 32.3 µM in test [10].
Regarding `Fc1ccccc1C1CC(c2ccc3ccccc3c2)=Nc2ccccc2S1` (stereo not drawn), the TGI in [1], in [2], in test [3], in [4], in test [5] and in [6] was more than 100 µM each time. The TGI in [7], in test [8] and in test [10] was more than 100 µM in each case.
